Values joined by “and” are separate entries in the source; they are usually repeats but may differ in a detail not shown here. Equal values may be shown once. Read-outs that look alike come from different tables or passages of the source.
Key:
[1] = tested on: pancreatic cancer cell line (Panc-1); experiment: Antiproliferative activity, MTT assay, Panc-1; format: cell-based; details: Homo sapiens; Panc-1, MTT; read-out: Antiproliferative Activity IC50 ± SEM Panc-1
Experimental: (§1) The antiproliferative activity of 5b, 5d, 5e, 5g, 5j and 5n against four human cancer cell lines including pancreatic cancer cell line (Panc-1), breast cancer cell line (MCF-7), colon cancer cell line (HT-29) and epithelial cancer cell line (A-549) using MTT assay and doxorubicin was applied as the reference compound [22, 23]. Graph Pad Prism software (Graph Pad Software, San Diego, CA, USA) was used to calculate the median inhibition concentration (IC50) and results are recorded in Table 2.
(§2) The antiproliferative activity of 5b, 5d, 5e, 5g, 5j and 5n against four human cancer cell lines including pancreatic cancer cell line (Panc-1), breast cancer cell line (MCF-7), colon cancer cell line (HT-29) and epithelial cancer cell line (A-549) using MTT assay and doxorubicin was applied as the reference compound [22, 23]. See Appendix A.
(§3) To explore the antiproliferative potential of compounds MTT assay was performed according to previously reported procedure using different cell lines To explore the antiproliferative potential of compounds propidium iodide fluorescence assay was performed using different cell lines. To calculate the total nuclear DNA, a fluorescent dye (propidium iodide, PI) is used which can attach to the DNA, thus offering a quick and precise technique. PI cannot pass through the cell membrane and its signal intensity can be considered as directly proportional to quantity of cellular DNA. Cells whose cell membranes are damaged or have changed permeability are counted as dead ones. The assay was performed by seeding the cells of different cell lines at a density of 3000–7500 cells/well (in 200 µL medium) in culture plates followed by incubation for 24 h at 37 °C in humidified 5% CO2/95% air atmospheric conditions. The medium was removed; the compounds were added to the plates at 10 µM concentrations (in 0.1% DMSO) in triplicates, followed by incubation for 48 h. DMSO (0.1%) was used as control. After incubation, medium was removed followed by the addition of PI (25 µL, 50µg/mL in water/medium) to each well of the plates. At −80 °C, the plates were allowed to freeze for 24 h, followed by thawing at 25 °C. A fluorometer (Polar-Star BMG Tech, Offenburg, Germany) was used to record the readings at excitation and emission wavelengths of 530 and 620 nm for each well. The percentage cytotoxicity of compounds was calculated using the following formula: %Cytotoxicity=(Ac−Atc)/Ac×100 where Atc = Absorbance of treated cells and Ac = Absorbance of control. Erlotinib was used as positive control in the assay.

[2] = tested on: colon cancer cell line (HT-29); experiment: Antiproliferative activity, MTT assay, HT-29; format: cell-based; details: Homo sapiens; HT-29, MTT; read-out: Antiproliferative Activity IC50 ± SEM HT-29
Experimental: as §1, §2, §3

[3] = tested on: breast cancer cell line (MCF-7); experiment: Antiproliferative activity, MTT assay, MCF-7; format: cell-based; details: Homo sapiens, MCF7; MCF-7, MTT; read-out: Antiproliferative Activity IC50 ± SEM MCF-7
Experimental: as §1, §2, §3

hCA IX = molecular target: T1, hCA IX (Homo sapiens, UniProt Q16790); experiment: stopped-flow CO2 hydrase assay, hCA IX; format: biochemical; details: for IC50: quoted in docking discussion, read-out: IC50 CA-IX (in vitro inhibitory activity quoted in docking study); for Selectivity Ratio hCA XII/ hCA IX: selectivity for hCA IX over hCA XII; for Ki: stopped-flow CO2 hydrase assay
T1 construct: made in house
Experimental: (§4) Newly synthesized hybrids 5a–n were tested for their inhibitory activity against four physiologically and pharmacologically CA isoforms, namely cytosolic hCA I and II, and tumor-associated isoforms hCA IX and XII, using a CO2 hydrase stop-flow assay. Acetazolamide (AAZ), clinically used sulphonamide, was used as the standard drug. […] The ability of imidazoles 5a–n toward inhibition of hCA I, II (cytosolic) as well as hCA IX and XII (transmembrane, tumor-associated isoforms) using stopped-flow CO2 hydrase assay was evaluated. See Appendix A.
(§5) The enzymes are recombinant proteins prepared in our lab. […] The uncatalyzed rates were determined in the same manner and subtracted from the total observed rates. Stock solutions of inhibitor (0.1 mM) were prepared in distilled-deionized water and dilutions up to 0.01 nM were done thereafter with the assay buffer. Inhibitor and enzyme solutions were preincubated together for 15 min at room temperature prior to assay, in order to allow for the formation of the E-I complex. The inhibition constants were obtained by non-linear least-squares methods using PRISM 3 and the Cheng-Prusoff equation, and represent the mean from at least three different determinations.

[4] = tested on: four human cancer cell lines (Panc-1, MCF-7, HT-29, A-549); experiment: Antiproliferative activity, MTT assay, average of the four cell lines; format: cell-based; details: for IC50: average of A-549, MCF-7, Panc-1, HT-29
Experimental: as §1, §2, §3

[5] = Cell viability assay (MTT); format: cell-based; details: human, MCF-10A mammary gland epithelial cells, MCF-10A cells, incubated 4 days
Experimental: Cell viability assay was carried out using human mammary gland epithelial cell line (MCF-10A). MCF-10A cells were incubated with compounds 5b, 5d, 5e, 5g, 5j and 5n for 4 days and MTT assay was used to determine the viability of cells. See Appendix A.
MTT assay was carried out to study the effect of compounds on mammary epithelial cells (MCF-10A). The medium in which cells were propagated contained Dulbecco’s modified Eagle’s medium (DMEM)/Ham’s F-12 medium (1:1) supplemented with epidermal growth factor (20 ng/mL), hydrocortisone (500 ng/mL), insulin (10 μg/mL), 2 mM glutamine and 10% fetal calf serum. After every 2–3 days, the cells were passaged using trypsin ethylenediamine tetra acetic acid (EDTA). The cells were seeded at a density of 10^4 cells mL^−1 in flat-bottomed culture plates containing 96 wells each. After 24 h, medium was removed from the plates and the compounds in (in 0.1% DMSO) were added (in 200 μL medium to yield a final concentration of 0.1% v/v) to the wells of plates. A single compound was designated with four wells followed by incubation of plates for 96 h at 37 °C. After incubation, medium was removed completely from the plates followed by addition of MTT (0.4 mg/mL in medium) to each well and subsequent incubation of plates for 3 h. MTT (along with the medium) was removed and DMSO (150 μL) was added to each well of the culture plates, followed by vortexing and subsequent measurement of absorbance (at 540 nm) using microplate reader. The data are shown as percentage inhibition of proliferation in comparison with controls containing 0.1% DMSO.

[6] = tested on: epithelial cancer cell line (A-549); experiment: Antiproliferative activity, MTT assay, A-549; format: cell-based; details: Homo sapiens, A549; A-549, MTT; read-out: Antiproliferative Activity IC50 ± SEM A-549
Experimental: as §1, §2, §3

hCA I = molecular target: T2, hCA I (Homo sapiens, UniProt P00915); experiment: stopped-flow CO2 hydrase assay, hCA I; format: biochemical
T2 construct: made in house
Experimental: as §4, §5

hCA II = molecular target: T3, hCA II (Homo sapiens, UniProt P00918); experiment: stopped-flow CO2 hydrase assay, hCA II; format: biochemical
T3 construct: made in house
Experimental: as §4, §5

hCA XII = molecular target: T4, hCA XII (Homo sapiens, UniProt O43570); experiment: stopped-flow CO2 hydrase assay, hCA XII; format: biochemical
T4 construct: made in house
Experimental: Newly synthesized hybrids 5a–n were tested for their inhibitory activity against four physiologically and pharmacologically CA isoforms, namely cytosolic hCA I and II, and tumor-associated isoforms hCA IX and XII, using a CO2 hydrase stop-flow assay. Acetazolamide (AAZ), clinically used sulphonamide, was used as the standard drug. […]. The ortho substitution in the aryl moiety appears to correlate with higher inhibitory effects against both hCA IX and XII. […] […]. The ability of imidazoles 5a–n toward inhibition of hCA I, II (cytosolic) as well as hCA IX and XII (transmembrane, tumor-associated isoforms) using stopped-flow CO2 hydrase assay was evaluated. See Appendix A.
The carbonic anhydrase catalyzed CO2 hydration actions for all new compounds herein reported have were assayed utilizing an instrument of Applied Photophysics stopped-flow. The enzymes are recombinant proteins prepared in our lab. […]. The uncatalyzed rates were determined in the same manner and subtracted from the total observed rates. Stock solutions of inhibitor (0.1 mM) were prepared in distilled-deionized water and dilutions up to 0.01 nM were done thereafter with the assay buffer. Inhibitor and enzyme solutions were preincubated together for 15 min at room temperature prior to assay, in order to allow for the formation of the E-I complex. The inhibition constants were obtained by non-linear least-squares methods using PRISM 3 and the Cheng-Prusoff equation, and represent the mean from at least three different determinations.

T4 sequence (O43570 25-354): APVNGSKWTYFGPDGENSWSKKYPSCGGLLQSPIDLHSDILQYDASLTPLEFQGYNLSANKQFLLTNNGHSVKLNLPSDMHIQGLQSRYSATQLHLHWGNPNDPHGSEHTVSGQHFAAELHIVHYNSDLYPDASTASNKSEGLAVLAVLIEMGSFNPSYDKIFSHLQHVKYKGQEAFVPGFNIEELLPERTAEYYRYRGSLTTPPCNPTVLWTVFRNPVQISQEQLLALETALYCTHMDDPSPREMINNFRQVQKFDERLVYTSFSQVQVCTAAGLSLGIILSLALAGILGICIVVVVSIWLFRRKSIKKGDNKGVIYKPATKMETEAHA
T2 sequence (P00915 whole entry): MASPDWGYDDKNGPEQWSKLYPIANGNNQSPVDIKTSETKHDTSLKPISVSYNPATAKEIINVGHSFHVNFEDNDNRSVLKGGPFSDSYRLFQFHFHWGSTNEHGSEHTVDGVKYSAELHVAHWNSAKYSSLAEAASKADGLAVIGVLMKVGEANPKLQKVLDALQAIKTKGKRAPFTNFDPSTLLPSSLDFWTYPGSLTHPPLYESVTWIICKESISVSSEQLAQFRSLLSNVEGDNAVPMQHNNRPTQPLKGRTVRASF

IC50 [1] | IC50 [2] | IC50 [3] | IC50 (hCA IX) | Selectivity Ratio hCA XII/ hCA IX (hCA IX) | Ki (hCA IX) | IC50 [4] | GI50 ([4]; mean of four cell lines, read-out: mean GI50 against the four cell lines) | IC50 [6] | Ki (hCA I) | Ki (hCA II) | Ki (hCA XII) | melting point | GI50 ([4]; four cancer cell lines, read-out: GI50) | Ki (hCA I; stopped-flow CO2 hydrase assay, read-out: Ki hCA I) | SMILES | viability at 96 h [5]
3.8 ± 0.3 µM | 3.1 ± 0.4 µM | 3.9 ± 0.4 µM | 0.72 µM | 7.00 | 0.72 µM and 0.7 µM | 3.5 µM | 3.5 µM | 3.1 ± 0.6 µM | > 100 µM | > 100 µM | 4.9 µM | 214 to 216 °C | – | – | NS(=O)(=O)c1ccc(-n2c(-c3c(Cl)cccc3Cl)nc(-c3ccccc3)c2-c2ccccc2)cc1 [Compound 5d, 4-(2-(2,6-Dichlorophenyl)-4,5-diphenyl-1H-imidazol-1-yl)benzene sulfonamide] | 87%
2.2 ± 0.4 µM | 2.4 ± 0.4 µM | 2.1 ± 0.2 µM | 0.32 µM | 12.00 | 0.32 µM and 0.3 µM | 2.3 µM | – | 2.4 ± 0.5 µM | – | > 100 µM | 3.7 µM | – | 2.3 µM | > 100 µM | COc1ccccc1-c1nc(-c2ccccc2)c(-c2ccccc2)n1-c1ccc(S(N)(=O)=O)cc1 [Compound 5g, 4-(2-(2-Methoxyphenyl)-4,5-diphenyl-1H-imidazol-1-yl)benzene sulfonamide] | 90%
4.6 ± 0.9 µM | 4.8 ± 0.4 µM | 3.6 ± 0.2 µM | – | 5.60 | 1.1 µM | 4.4 µM | – | 4.6 ± 0.6 µM | > 100 µM | > 100 µM | 6.2 µM | 280 to 282 °C | – | – | NS(=O)(=O)c1ccc(-n2c(-c3ccccc3[N+](=O)[O-])nc(-c3ccccc3)c2-c2ccccc2)cc1 [Compound 5j, 4-(2-(2-Nitrophenyl)-4,5-diphenyl-1H-imidazol-1-yl)benzene sulfonamide] | 88%
4.8 ± 0.3 µM | 4.8 ± 0.2 µM | 4.6 ± 0.6 µM | – | 5.00 | 1.3 µM | 4.7 µM | – | 4.7 ± 0.6 µM | > 100 µM | > 100 µM | 6.4 µM | 290 to 292 °C | – | – | NS(=O)(=O)c1ccc(-n2c(-c3cccs3)nc(-c3ccccc3)c2-c2ccccc2)cc1 [Compound 5n, 4-(4,5-Diphenyl-2-(thiophen-2-yl)-1H-imidazol-1-yl)benzene sulfonamide] | 90%

— publication PMC8400968, “Design, Synthesis, Biological Evaluation, and Computational Studies of Novel Tri-Aryl Imidazole-Benzene Sulfonamide Hybrids as Promising Selective Carbonic Anhydrase IX and XII Inhibitors” (Molecules, 2021)
